Source: article PMC5075789, “Orphan GPR110 (ADGRF1) targeted by N-docosahexaenoylethanolamine in development of neurons and cognitive function” (Nature Communications, 2016)

Columns and labels:
[1] = target: T1, mGPR110-HA (mouse GPR110) (Mus musculus, UniProt Q8VEC3); experiment: in-cell cross-linking (DSS), streptavidin pull-down, western blot; type: cell-based; details: 1 μM G1*, live HEK293 cells, 25 °C; cross-linked by 1 mM DSS
T1 construct: gene Adgrf1; full-length ORF, C-terminal HA tag kept, expressed in HEK293; about 100 kD main band
T1 sequence (Q8VEC3 21-564): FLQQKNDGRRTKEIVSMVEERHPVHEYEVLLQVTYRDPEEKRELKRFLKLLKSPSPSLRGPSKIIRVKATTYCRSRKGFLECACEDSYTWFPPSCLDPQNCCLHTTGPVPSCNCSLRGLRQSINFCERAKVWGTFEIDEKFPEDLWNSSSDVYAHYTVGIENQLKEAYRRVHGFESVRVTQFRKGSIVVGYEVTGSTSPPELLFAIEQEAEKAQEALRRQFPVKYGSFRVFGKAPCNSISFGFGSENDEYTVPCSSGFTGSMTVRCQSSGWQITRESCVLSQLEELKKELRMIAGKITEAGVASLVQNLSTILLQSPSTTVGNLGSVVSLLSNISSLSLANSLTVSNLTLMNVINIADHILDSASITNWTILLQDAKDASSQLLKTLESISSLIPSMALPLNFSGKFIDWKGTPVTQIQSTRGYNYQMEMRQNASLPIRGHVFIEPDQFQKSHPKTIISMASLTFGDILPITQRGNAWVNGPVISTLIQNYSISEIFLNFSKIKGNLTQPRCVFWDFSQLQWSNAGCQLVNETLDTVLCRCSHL
T1 sequence (Q8VEC3 565-908): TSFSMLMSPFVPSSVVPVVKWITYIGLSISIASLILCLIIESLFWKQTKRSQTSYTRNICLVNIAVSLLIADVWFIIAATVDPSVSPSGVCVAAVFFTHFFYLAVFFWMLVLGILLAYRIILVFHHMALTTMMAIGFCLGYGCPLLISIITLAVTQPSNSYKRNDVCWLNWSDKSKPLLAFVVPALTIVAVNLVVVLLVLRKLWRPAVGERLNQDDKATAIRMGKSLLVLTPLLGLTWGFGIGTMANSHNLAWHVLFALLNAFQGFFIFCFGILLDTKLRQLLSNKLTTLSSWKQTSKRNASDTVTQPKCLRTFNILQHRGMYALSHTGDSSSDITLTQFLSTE

[2] = target: T1, mGPR110-HA (mouse GPR110); experiment: streptavidin pull-down and western blot; type: binding; details: 1 μM G1, HEK293 lysate, PBS with 0.5% Triton X-100
[3] = target: T2, hGPR110-HA (human GPR110, ADGRF1) (Homo sapiens, UniProt Q5T601); experiment: streptavidin pull-down and western blot; type: binding; details: 1 μM G1, HEK293 lysate
T2 construct: full-length ORF, 910 residues, C-terminal HA tag kept, expressed in HEK293 (CRE-luc2P HEK293 for cAMP); immunopurified with anti-HA for MST; glycosylated, about 130 and 110 kD
T2 sequence (Q5T601 20-566): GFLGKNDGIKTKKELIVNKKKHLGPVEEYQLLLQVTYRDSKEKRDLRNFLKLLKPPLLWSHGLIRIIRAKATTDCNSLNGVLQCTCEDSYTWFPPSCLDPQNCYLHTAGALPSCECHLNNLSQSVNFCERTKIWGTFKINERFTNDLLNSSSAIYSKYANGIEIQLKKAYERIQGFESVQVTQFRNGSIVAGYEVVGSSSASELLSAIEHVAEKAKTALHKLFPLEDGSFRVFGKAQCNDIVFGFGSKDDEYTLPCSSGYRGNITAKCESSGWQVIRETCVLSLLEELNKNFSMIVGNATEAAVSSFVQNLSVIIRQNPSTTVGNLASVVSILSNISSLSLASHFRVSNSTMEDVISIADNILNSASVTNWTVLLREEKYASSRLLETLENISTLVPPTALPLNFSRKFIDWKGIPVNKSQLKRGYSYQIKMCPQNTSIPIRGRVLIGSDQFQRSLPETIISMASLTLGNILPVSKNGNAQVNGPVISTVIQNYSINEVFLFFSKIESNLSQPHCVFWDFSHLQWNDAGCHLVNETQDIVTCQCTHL
T2 sequence (Q5T601 567-910): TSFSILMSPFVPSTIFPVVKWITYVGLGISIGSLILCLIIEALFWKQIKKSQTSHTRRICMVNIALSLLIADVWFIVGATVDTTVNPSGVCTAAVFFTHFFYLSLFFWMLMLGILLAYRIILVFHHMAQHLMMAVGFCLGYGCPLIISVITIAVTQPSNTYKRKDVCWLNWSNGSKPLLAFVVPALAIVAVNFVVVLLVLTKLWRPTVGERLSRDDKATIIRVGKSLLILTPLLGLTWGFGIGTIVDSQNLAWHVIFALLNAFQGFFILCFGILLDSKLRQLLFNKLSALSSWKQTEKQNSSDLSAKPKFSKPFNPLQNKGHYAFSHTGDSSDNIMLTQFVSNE

[4] = target: T2, hGPR110-HA (human GPR110, ADGRF1); experiment: microscale thermophoresis; details: read-out: apparent Kd
From the text: microscale thermophoresis on hGPR110-HA (human GPR110, ADGRF1) | immunopurified hGPR110 and bodipy-synaptamide, a fluorescent synaptamide analogue, indicated apparent Kd

CC/C=C\C/C=C\C/C=C\C/C=C\C/C=C\C/C=C\CCC(=O)NCCCC(CCCN)NC(=O)CCCC[C@@H]1SC[C@@H]2NC(=O)N[C@@H]21 (stereo partly drawn) [G1*, (4Z,7Z,10Z,13Z,16Z,19Z)-N-(7-amino-4-(5-((3aS,4S,6aR)-2-oxohexahydro-1H-thieno(3,4-d)imidazol-4-yl)pentanamido)heptyl)docosa-4,7,10,13,16,19-hexaenamide]
in-cell cross-linking (DSS), streptavidin pull-down, western blot [1]: confirming G1* binding to GPR110-HA in live HEK cells

CC/C=C\C/C=C\C/C=C\C/C=C\C/C=C\C/C=C\CCC(=O)NCCNC(=O)CCCC[C@@H]1SC[C@@H]2NC(=O)N[C@@H]21 [G1, (4Z,7Z,10Z,13Z,16Z,19Z)-N-(2-(5-((3aS,4S,6aR)-2-oxohexahydro-1H-thieno(3,4-d)imidazol-4-yl)pentanamido)ethyl)docosa-4,7,10,13,16,19-hexaenamide]
streptavidin pull-down and western blot [2]: confirming binding of G1 to the expressed mGPR110-HA
streptavidin pull-down and western blot [3]: hGPR110 showed G1 binding which was displaced by synaptamide

CC/C=C\C/C=C\C/C=C\C/C=C\C/C=C\C/C=C\CCC(=O)NCCNC(=O)CCCCC1=C2C(C)=CC(C)=[N+]2[B-](F)(F)n2c(C)cc(C)c21 [bodipy-synaptamide, 10-(5-((2-((4Z,7Z,10Z,13Z,16Z,19Z)-docosa-4,7,10,13,16,19-hexaenamido)ethyl)amino)-5-oxopentyl)-5,5-difluoro-1,3,7,9-tetramethyl-5H-dipyrrolo(1,2-c:2',1'-f)(1,3,2)diazaborinin-4-ium-5-uide]
Kd [4]: ~20 nM
